According to patent publication US9409952B2, “Peptide-compound cyclization method” (Chugai Seiyaku Kabushiki Kaisha, priority 2011, dated 2016):
Like-named read-outs stand apart in the source and are kept apart here. Starred links: 1 amine or outer side, 2 acyl side, 3 side chain; linkers in the order of their positions; H or OH if unused. Positions of bridges follow the written chain, without caps; N, C: chain ends. Non-standard residues stand in square brackets, D forms with d. Residues, ends and D or L forms follow the SMILES beside them. *: point of attachment. Phe(4-(CH2)5CO) = O=C([C@H](Cc1ccc(CCCCCC(=O)[*:3])cc1)N[*:1])[*:2]; NMeF = CN[C@@H](Cc1ccccc1)C(=O)O; NMeI = CC[C@H](C)[C@H](NC)C(=O)O; hPhe = N[C@@H](CCc1ccccc1)C(=O)O; NMeL = CN[C@@H](CC(C)C)C(=O)O; NMeV = CN[C@H](C(=O)O)C(C)C; Pip = O=C(O)[C@@H]1CCCCN1; NMeA = CN[C@@H](C)C(=O)O; Piperidide = C1CCN(*)CC1; β3hA = C[C@H](N)CC(=O)O; Sar = CNCC(=O)O; tBu = CC(C)(C)*

Assay: Metabolic stability in human hepatic microsome
Type: in vitro ADME
Settings: for microsomal CLint at 1 uM: microsomes
[1] = pH 7.4, human hepatic microsome, NADPH(+), read-out: CL NADPH(+)

| Structure (SMILES) | microsomal CLint at 1 uM [1] | other results |
| --- | --- | --- |
| CC[C@H](C)[C@H]1C(=O)N[C@@H](Cc2ccccc2)C(=O)N(C)[C@@H](Cc2ccccc2)C(=O)N[C@@H]([C@@H](C)O)C(=O)N2CCC[C@H]2C(=O)N[C@@H](CC(C)C)C(=O)N[C@H](C(=O)N2CCCCC2)Cc2ccc(cc2)CCCCCC(=O)N[C@@H](C(C)C)C(=O)N(C)CC(=O)N[C@@H](CC(C)C)C(=O)N(C)[C@@H](CC(C)C)C(=O)N[C@@H](C)C(=O)N1C [DP-895] (V[Sar]L[NMeL]A[NMeI]F[NMeF]TPL[Phe(4-(CH2)5CO)]-Piperidide; lactam N-12) | 54 µL/min/mg |  |
| CC[C@H](C)[C@@H]1NC(=O)[C@H](C)NC(=O)C[C@@H](C(=O)N2CCCCC2)NC(=O)[C@H](C(C)C)NC(=O)[C@H](Cc2ccccc2)N(C)C(=O)[C@H](CC(C)C)NC(=O)[C@H]([C@@H](C)O)NC(=O)[C@H](Cc2ccccc2)NC(=O)[C@H](C)NC(=O)CN(C)C(=O)[C@H](CC(C)C)NC1=O [DP-28] (AIL[Sar]AFTL[NMeF]VD-Piperidide; lactam N-11) |  | microsomal CLint at 1 uM (human, pH 7.4, CL NADPH(+)): 113 µL/min/mg |
| CC[C@H](C)[C@@H]1NC(=O)[C@H](Cc2ccccc2)N(C)C(=O)[C@H](CC(C)C)N(C)C(=O)[C@H](CC(C)C)NC(=O)[C@H](C)NC(=O)[C@H](C(C)C)N(C)C(=O)CNC(=O)CCCCCc2ccc(cc2)C[C@@H](C(=O)N2CCCCC2)NC(=O)[C@H](CC(C)C)N(C)C(=O)[C@H]([C@@H](C)O)NC(=O)[C@@H]2CCCN2C(=O)[C@H](Cc2ccccc2)NC1=O [DP-902] (G[NMeV]AL[NMeL][NMeF]IFPT[NMeL][Phe(4-(CH2)5CO)]-Piperidide; lactam N-12) | 121 µL/min/mg |  |
| CC[C@H](C)[C@@H]1NC(=O)[C@H](C)N(C)C(=O)CN(C)C(=O)C[C@@H](C(=O)N2CCCCC2)NC(=O)[C@H](CC(C)C)N(C)C(=O)[C@H](C)N(C)C(=O)[C@H](Cc2ccccc2)N(C)C(=O)[C@H]([C@@H](C)O)NC(=O)[C@H](Cc2ccccc2)N(C)C(=O)[C@H](CC(C)C)N(C)C1=O [DP-519] ([Sar][NMeA]I[NMeL][NMeF]T[NMeF][NMeA][NMeL]D-Piperidide; lactam N-10) | 157 µL/min/mg |  |
| CC(C)C[C@@H]1NC(=O)[C@H](CC(C)C)N(C)C(=O)[C@H](CC(C)C)N(C)C(=O)[C@H](CCC(N)=O)NC(=O)[C@H](Cc2ccccc2)N(C)C(=O)[C@H]([C@@H](C)O)NC(=O)[C@H](CC(C)C)N(C)C(=O)[C@H](Cc2ccccc2)NC(=O)[C@H](C)NC(=O)C[C@@H](C(=O)N(C)[C@@H](Cc2ccccc2)C(=O)N[C@@H](C)C(=O)N2CCCCC2)NC1=O [DP-602] (AF[NMeL]T[NMeF]Q[NMeL][NMeL]LD[NMeF]A-Piperidide; lactam N-10) | 26 µL/min/mg |  |
| C=C1CCC(=O)N[C@@H](COC(C)(C)C)C(=O)N(CCC)CC(=O)N(C)[C@@H](CC(C)C)C(=O)N[C@@H]([C@@H](C)O)C(=O)N(C)[C@@H](Cc2ccccc2)C(=O)N(C)[C@@H](CC(C)C)C(=O)N(C)[C@@H]([C@@H](C)CC)C(=O)N(C)[C@@H](C)C(=O)N[C@H](C(=O)N2CCCCC2)Cc2ccc1cc2 [DP-839] | 91 µL/min/mg |  |
| CC(C)C[C@@H]1NC(=O)[C@H](CC(C)C)N(C)C(=O)[C@H](C)N(C)C(=O)[C@H](C(C)C)NC(=O)[C@H](Cc2ccccc2)NC(=O)CNC(=O)[C@H]([C@@H](C)O)NC(=O)[C@H](CC(C)C)NC(=O)[C@@H]2CCCN2C(=O)[C@H](Cc2ccccc2)NC(=O)[C@H](C)NC(=O)C[C@@H](C(=O)N2CCCCC2)NC1=O [DP-23] (AFPLTGFV[NMeA][NMeL]LD-Piperidide; lactam N-12) |  | microsomal CLint at 1 uM (human, pH 7.4, CL NADPH(+)): 105 µL/min/mg |
| CC(C)C[C@H]1C(=O)N[C@@H](COC(C)(C)C)C(=O)N[C@H](C(=O)N2CCCCC2)CC(=O)N[C@@H](C)C(=O)N(C)[C@@H](C)C(=O)N(C)[C@@H](Cc2ccccc2)C(=O)N(C)[C@@H](CC(C)C)C(=O)N[C@@H]([C@@H](C)O)C(=O)N(C)CC(=O)N1C [Compound P-119, Ala-MeAla-MePhe-MeLeu-Thr-MeGly-MeLeu-Ser(tBu)-Asp-piperidine] (A[NMeA][NMeF][NMeL]T[Sar][NMeL]S(tBu)D-Piperidide; lactam N-9) |  | Hepatic microsome CLhint (Human) In the absence of NADPH: 5 ul/min/mg Protein; microsomal CLint at 1 uM (human, pH 7.4, Hepatic microsome CLhint (Human) In the presence of NADPH): 56 µL/min/mg |
| CC[C@H](C)[C@@H]1NC(=O)[C@H](CC(C)C)N(C)C(=O)[C@H](CC(C)C)N(C)C(=O)[C@H](C)NC(=O)[C@H](CC(C)C)N(C)C(=O)[C@H](Cc2ccccc2)NC(=O)[C@H]([C@@H](C)O)NC(=O)[C@H](CC(C)C)N(C)C(=O)[C@H](CC(C)C)N(C)C(=O)[C@H](C)N(C)C(=O)C[C@H](C)NC1=O [DP-772] (cyclo(A[NMeL][NMeL]I[β3hA][NMeA][NMeL][NMeL]TF[NMeL])) |  | microsomal CLint at 1 uM (human, pH 7.4, CL NADPH(+)): 153 µL/min/mg |
| CC(C)C[C@@H]1NC(=O)[C@H](CC(C)C)N(C)C(=O)[C@H](Cc2ccccc2)NC(=O)[C@H](C)N(C)C(=O)C[C@@H](C(=O)N2CCCCC2)NC(=O)[C@H](Cc2ccccc2)NC(=O)[C@@H]2CCCN2C(=O)[C@H]([C@@H](C)O)NC(=O)[C@H](CC(C)C)N(C)C(=O)CNC(=O)[C@@H]2CCCCN2C1=O [DP-555] ([NMeA]F[NMeL]L[Pip]G[NMeL]TPFD-Piperidide; lactam N-11) | 95 µL/min/mg |  |
| CC[C@H](C)[C@H]1C(=O)N[C@@H](Cc2ccccc2)C(=O)N(C)[C@@H](Cc2ccccc2)C(=O)N[C@@H]([C@@H](C)O)C(=O)N2CCC[C@H]2C(=O)N[C@@H](CC(C)C)C(=O)N[C@H](C(=O)N2CCCCC2)CC(=O)N[C@@H](C)C(=O)N[C@@H](C(C)C)C(=O)N(C)CC(=O)N[C@@H](CC(C)C)C(=O)N(C)[C@@H](CC(C)C)C(=O)N[C@@H](C)C(=O)N1C [DP-1] (AV[Sar]L[NMeL]A[NMeI]F[NMeF]TPLD-Piperidide; lactam N-13) |  | microsomal CLint at 1 uM (human, pH 7.4, CL NADPH(+)): 27 µL/min/mg |
| CC[C@H](C)[C@@H]1NC(=O)[C@H](C)N(C)C(=O)CCCCCc2ccc(cc2)C[C@@H](C(=O)N2CCCCC2)NC(=O)[C@H](CC(C)C)N(C)C(=O)[C@H](CC(C)C)N(C)C(=O)[C@H](C)N(C)C(=O)[C@H]([C@@H](C)O)NC(=O)[C@H](Cc2ccccc2)N(C)C(=O)[C@H](Cc2ccccc2)N(C)C1=O [DP-841] ([NMeA]I[NMeF][NMeF]T[NMeA][NMeL][NMeL][Phe(4-(CH2)5CO)]-Piperidide; lactam N-9) | 386 µL/min/mg |  |
| CC(C)C[C@H]1C(=O)N(C)[C@@H](CC(C)C)C(=O)N[C@@H](Cc2c[nH]c3ccccc23)C(=O)N[C@H](C(=O)N(C)[C@@H](Cc2ccccc2)C(=O)N[C@@H](C)C(=O)N2CCCCC2)CC(=O)N[C@@H](C)C(=O)N[C@@H](Cc2ccccc2)C(=O)N(C)[C@@H](CC(C)C)C(=O)N[C@@H]([C@@H](C)O)C(=O)N(C)[C@@H](Cc2ccccc2)C(=O)NCC(=O)N1C [DP-608] (AF[NMeL]T[NMeF]G[NMeL][NMeL]WD[NMeF]A-Piperidide; lactam N-10) | 13 µL/min/mg |  |
| CC(C)C[C@@H]1NC(=O)[C@H](Cc2ccccc2)NC(=O)[C@H](CC(C)C)N(C)C(=O)[C@H](Cc2ccccc2)NC(=O)CCCCCc2ccc(cc2)C[C@@H](C(=O)N2CCCCC2)NC(=O)[C@H](Cc2ccccc2)N(C)C(=O)CNC(=O)[C@H]([C@@H](C)O)NC(=O)[C@H](CC(C)C)NC1=O [DP-842] (F[NMeL]FLLTG[NMeF][Phe(4-(CH2)5CO)]-Piperidide; lactam N-9) | 135 µL/min/mg |  |
| CC[C@H](C)[C@H](NC(=O)[C@H](CC(C)C)N(C)C(=O)[C@H](CC(C)C)NC(=O)[C@@H]1CC(=O)N[C@@H](C)C(=O)N(C)[C@@H](Cc2ccccc2)C(=O)N(C)[C@@H](CC(C)C)C(=O)N(C)[C@@H](CC(C)C)C(=O)N[C@@H](Cc2ccccc2)C(=O)N[C@@H]([C@@H](C)O)C(=O)N[C@@H](C(C)C)C(=O)N1)C(=O)N1CCCCC1 [DP-934] (A[NMeF][NMeL][NMeL]FTVDL[NMeL]I-Piperidide; lactam N-8) | 143 µL/min/mg |  |
| CC[C@H](C)[C@@H]1NC(=O)[C@H](C)NC(=O)[C@H](CC(C)C)N(C)C(=O)[C@H](CC(C)C)NC(=O)[C@H](Cc2ccccc2)NC(=O)[C@H](C(C)C)NC(=O)[C@H](C)N(C)C(=O)[C@H](CC(C)C)NC(=O)[C@H](Cc2ccccc2)N(C)C(=O)[C@H]([C@@H](C)O)NC(=O)CNC(=O)[C@H](C)NC(=O)C[C@@H](C(=O)N2CCCCC2)NC1=O [DP-87] (AGT[NMeF]L[NMeA]VFL[NMeL]AID-Piperidide; lactam N-13) | 120 µL/min/mg |  |
| C=C1CCC(=O)N[C@@H](CC(C)C)C(=O)N(C)[C@@H](CC(C)C)C(=O)N(C)[C@@H](Cc2ccccc2)C(=O)N[C@@H](C)C(=O)N(C)[C@@H](Cc2ccccc2)C(=O)N(C)[C@@H]([C@@H](C)CC)C(=O)N[C@@H]([C@@H](C)O)C(=O)N(C)CC(=O)N(C)[C@@H](CC(C)C)C(=O)N[C@H](C(=O)N2CCCCC2)Cc2cccc1c2 [DP-855] | 210 µL/min/mg |  |
| CC(C)C[C@@H]1NC(=O)[C@H](C)NC(=O)C[C@@H](C(=O)N2CCCCC2)NC(=O)[C@H](CC(C)C)N(C)C(=O)[C@H](C)NC(=O)[C@H](CC(C)C)NC(=O)[C@H](C(C)C)NC(=O)CNC(=O)[C@H](Cc2ccccc2)NC(=O)[C@H](C)N(C)C(=O)[C@H](CC(C)C)NC(=O)[C@H]([C@@H](C)O)NC(=O)[C@H](Cc2ccccc2)NC1=O [DP-82] (ALFTL[NMeA]FGVLA[NMeL]D-Piperidide; lactam N-13) | 16 µL/min/mg |  |
| CC[C@H](C)[C@@H]1NC(=O)[C@H](Cc2ccccc2)N(C)C(=O)[C@H](CCc2ccccc2)NC(=O)[C@H](C(C)C)N(C)C(=O)[C@H](CC(C)C)N(C)C(=O)[C@H](CC(C)C)NC(=O)[C@@H](C)NC(=O)C[C@@H](C(=O)N2CCCCC2)NC(=O)[C@H]([C@@H](C)O)NC(=O)[C@H](C)NC(=O)[C@H](C)N(C)C1=O [DP-730] ([dA]L[NMeL][NMeV][hPhe][NMeF]I[NMeA]ATD-Piperidide; lactam N-11) | 50 µL/min/mg |  |
| C=C1CCC(=O)N(C)[C@@H](Cc2ccccc2)C(=O)N[C@@H](CC(C)C)C(=O)N(C)[C@@H](CC(C)C)C(=O)N[C@@H]([C@@H](C)O)C(=O)N(C)CC(=O)N(C)[C@@H]([C@@H](C)CC)C(=O)N[C@@H](COC(C)(C)C)C(=O)N(C)[C@@H](Cc2ccccc2)C(=O)N(C)[C@@H](C(C)C)C(=O)N[C@H](C(=O)N2CCCCC2)Cc2ccc1cc2 [DP-850] | 119 µL/min/mg |  |
| CC[C@H](C)[C@H](NC(=O)[C@@H]1CCCN1C(=O)[C@@H](NC(=O)[C@@H]1CC(=O)N[C@@H](C)C(=O)N[C@@H](CC(C)C)C(=O)N(C)[C@@H](CC(C)C)C(=O)N[C@@H](C)C(=O)N[C@@H](CC(C)C)C(=O)N(C)[C@@H](Cc2ccccc2)C(=O)N[C@@H](Cc2ccccc2)C(=O)N1)[C@@H](C)O)C(=O)N1CCCCC1 [DP-45] (AL[NMeL]AL[NMeF]FDTPI-Piperidide; lactam N-8) |  | microsomal CLint at 1 uM (human, pH 7.4, CL NADPH(+)): 129 µL/min/mg |
